These results are taken from patent US4670431A, “Beta-lactam antibacterial agents” (Beecham Group p.l.c., priority 1983, dated 1987).

≈ marks a conversion by molar mass, not a printed value. Counter-ions that a name gives are not always drawn.

The test system of the first assay is P. mirabilis 889. Nature of the assay: MIC against P. mirabilis 889. Format: cell-based, Proteus mirabilis.
Conditions: not given
From the text:
The antibiotic compounds of the present invention are active against a wide range of gram negative and gram positive organisms including E. coli such as, for example ESS, JT4, JT425 and NCTC 10418; Pseudomonas Spp. such Ps.aeruginosa for example 10662 and Dalgleish; Serratia marcescens US32; Klebsiella aerogenes A; Enterobacter cloacae N1; P.mirabilis such as, for example C977 and 889; P.morganii, P.rettgeri; B.subtilis; Staph aureus such as, for example Oxford and Russell; N.catarrhalis 1502; Strep faecalis I; β-Haemolytic Strep CN10. The MIC data included in the following examples is representative of the activity of the compounds of the present invention.
As for `CCN1CCN(C(=O)N[C@@H](C(=O)N[C@]2(NC=O)C(=O)N3[C@@H](C(=O)O)C(C)(C)[S+]([O-])[C@@H]32)c2ccc(OC(C)=O)c(OC(C)=O)c2)C(=O)C1=O` (single isomer, unassigned; isomer a) [Example 17, Sodium 6β-[D-2-[(4-ethyl-2,3-dioxopiperazin-1-yl)carbonylamino]-2-(3,4-diacetoxyphenyl)acetamido]-6α-formamidopenicillanate-1-oxide, Isomer A], the “MIC against P. mirabilis 889” value turned out to be 4.0 µg/mL.

`CCN1CCN(C(=O)N[C@@H](C(=O)N[C@]2(NC=O)C(=O)N3C(C(=O)O)=C(COC(C)=O)C[S+]([O-])[C@@H]32)c2ccc(OC(C)=O)c(OC(C)=O)c2)C(=O)C1=O` (single isomer, unassigned) [Example 1 Isomer B, Sodium 7β-[D-2-[(4-ethyl-2,3-dioxopiperazin-1-yl)carbonylamino]-2-(3,4-diacetoxyphenyl)acetamido]-7α-formamidocephalosporanate-1-oxide]: the “MIC against P. mirabilis 889” value is less than 0.06 µg/mL.

As to `CCN1CCN(C(=O)N[C@@H](C(=O)N[C@]2(NC=O)C(=O)N3C(C(=O)O)=C(COC(C)=O)C[S+]([O-])[C@@H]32)c2ccccc2)C(=O)C1=O` (single isomer, unassigned) [Example 3 Isomer B, Sodium 7β-[D-2-[(4-Ethyl-2,3-dioxopiperazin-1-yl)carbonylamino]-2-phenylacetamido]-7α-formamidocephalosporanate-1-oxide], the “MIC against P. mirabilis 889” value worked out at 0.25 µg/mL. With `CCN1CCN(C(=O)N[C@@H](C(=O)N[C@]2(NC=O)C(=O)N3C(C(=O)O)=C(CSc4nnnn4C)C[S+]([O-])[C@@H]32)c2ccc(OC(C)=O)c(OC(C)=O)c2)C(=O)C1=O` (single isomer, unassigned) [Example 5 Isomer A, Sodium 7β-[D-2-(3,4-diacetoxyphenyl)-2-[(4-ethyl-2,3-dioxopiperazin-1-yl)carbonylamino]acetamido]-7α-formamido-3-[(1-methyl-1H-tetrazol-5-yl)thiomethyl]-ceph-3-em-4-carboxylate-1-oxide], the “MIC against P. mirabilis 889” value stood at 0.5 µg/mL.

The same assay, now with this note: Proteus mirabilis, 889.
Consider `CC1(C)[C@H](C(=O)O)N2C(=O)[C@@](NC=O)(NC(=O)[C@H](NC(=O)N3CCN(S(C)(=O)=O)C3=O)c3ccc(O)cc3)[C@H]2[S+]1[O-]` (single isomer, unassigned; isomer b) [Example 24, Sodium 6β-[D-2-(4-hydroxyphenyl)-2-[[3-(methylsulphonyl)-2-oxoimidazolidin-1-yl]carbonylamino]acetamido]-6α-formamidopenicillanate-1-oxide (isomer B)], for which it took 2 µg/mL to inhibit growth (MIC). On the same count and under the same terms, in the case of `CCN1CCN(C(=O)N[C@@H](C(=O)N[C@]2(NC=O)C(=O)N3[C@@H](C(=O)O)C(C)(C)[S+]([O-])[C@@H]32)c2ccccc2)C(=O)C1=O` (single isomer, unassigned) [Example 22 Isomer B, Sodium 6β-[D-2-[(4-ethyl-2,3-dioxopiperazin-1-yl)carbonylamino]-2-phenylacetamido]-6α-formamidopenicillanate-1-oxide] it was 1 µg/mL; in that of `CCN1CCN(C(=O)N[C@@H](C(=O)N[C@]2(NC=O)C(=O)N3C(C(=O)[O-])=C(C[n+]4ccccc4)C[S+]([O-])[C@@H]32)c2ccccc2)C(=O)C1=O` (stereo partly drawn) [Example 7, 7β-[D-2-[(4-Ethyl-2,3-dioxopiperazin-1-yl)carbonylamino]-2-phenylacetamido]-7α-formamido-3-pyridiniummethyl-ceph-3-em-4-carboxylate-1-oxide], 8 µg/mL (≈ 12.3 µM); in that of `CCN1CCN(C(=O)N[C@@H](C(=O)N[C@]2(NC=O)C(=O)N3C(C(=O)O)=C(COC(C)=O)C[S@@+]([O-])[C@@H]32)c2ccc(O)cc2)C(=O)C1=O` (single isomer, unassigned) [Example 14 Isomer B, 7β-[D-2-[(4-Ethyl-2,3-dioxopiperazin-1-yl)carbonylamino]-2-(4-hydroxyphenyl)acetamido]-7α-formamidocephalosporanic acid 1-oxide, sodium salt], 0.12 µg/mL. `CCN1CCN(C(=O)N[C@@H](C(=O)N[C@]2(NC=O)C(=O)N3C(C(=O)[O-])=C(C[n+]4ccccc4)CS[C@@H]32)c2ccccc2)C(=O)C1=O` [Example 7(c), 7β-[D-2-[(4-Ethyl-2.3-dioxopiperazin-1-yl)carbonylamino]-2-phenylacetamido]-7α-formamido-3-pyridiniummethyl-ceph-3-em-4-carboxylate]: the MIC – broadly, the lowest concentration that inhibits growth of the organism – was found to be 0.5 µg/mL (≈ 0.787 µM). In the case of `CCN1CCN(C(=O)N[C@@H](C(=O)N[C@]2(NC=O)C(=O)N3C(C(=O)O)=C(COC(C)=O)CS(=O)(=O)[C@@H]32)c2ccccc2)C(=O)C1=O` [Example 2, Sodium 7β-[D,2-([4-Ethyl-2,3-dioxopiperazin-1-yl]carbonylamino)-2-phenylacetamido]-7α-formamidocephalosporanate-1,1-dioxide], the lowest concentration to inhibit growth (MIC) was 8 µg/mL.

In turn, `CC1(C)[C@H](C(=O)O)N2C(=O)[C@@](NC=O)(NC(=O)[C@H](N)c3ccccc3)[C@H]2[S+]1[O-]` (single isomer, unassigned; isomer b) [Example 23, 6β-(D-2-Amino-2-phenylacetamido)-6α-formamidopenicillanic acid-1-oxide, isomer B] returned an MIC of 32 µg/mL (≈ 78.3 µM). `CCN1CCN(C(=O)N[C@@H](C(=O)N[C@]2(NC=O)C(=O)N3C(C(=O)O)=C(CSc4nnnn4C)C[S@@+]([O-])[C@@H]32)c2ccccc2)C(=O)C1=O` [Example 8(d), Sodium 7β-[D-2-[(4-Ethyl-2,3-dioxopiperazin-1-yl)carbonylamino]-2-phenylacetamido]-7α-formamido-3-[(1-methyl-1H-tetrazol-5-yl)thiomethyl]ceph-3-em-4-carboxylate-1α-oxide] registered an MIC of 0.25 µg/mL. With `CCN1CCN(C(=O)N[C@@H](C(=O)N[C@]2(NC=O)C(=O)N3C(C(=O)O)=C(CSc4nnnn4C)C[S@@+]([O-])[C@@H]32)c2ccc(O)c(O)c2)C(=O)C1=O` [Example 16(e), Sodium 7β-[D-2-(3,4-dihydroxyphenyl)-2-[(4-ethyl-2,3-dioxopiperazin-1-yl)carbonylamino]acetamido]-7α-formamido-3-[(1-methyl-1H-tetrazol-5-yl)thiomethyl]-ceph-3-em-4-carboxylate-1α-oxide], the MIC worked out at 0.25 µg/mL. Molecule `CCN1CCN(C(=O)N[C@@H](C(=O)N[C@]2(NC=O)C(=O)N3C(C(=O)O)=C(COC(C)=O)C[S+]([O-])[C@@H]32)c2ccccc2)C(=O)C1=O` (single isomer, unassigned) [Example 3 Isomer A, Sodium 7β-[D-2-[(4-Ethyl-2,3-dioxopiperazin-1-yl)carbonylamino]-2-phenylacetamido]-7α-formamidocephalosporanate-1-oxide] returned an MIC of 0.25 µg/mL. `CCN1CCN(C(=O)N[C@@H](C(=O)N[C@]2(NC=O)C(=O)N3C(C(=O)O)=C(CSc4nnnn4C)CS[C@@H]32)c2ccccc2)C(=O)C1=O` [Example 8(b), 7β-[D-2-[(4-Ethyl-2,3-dioxopiperazin-1-yl)carbonylamino]-2-phenylacetamido]-7α-formamido-3-[(1-methyl-1H-tetrazol-5-yl)thiomethyl]ceph-3-em-4-carboxylic acid, sodium salt]: it took 0.125 µg/mL to inhibit growth (MIC). Compared with the last molecule, the MIC is about 2-fold lower.

Still in this assay, the particulars now being: Proteus mirabilis, 889, broth.
For the molecule `NC(=O)OCC1=C(C(=O)O)N2C(=O)[C@@](NC=O)(NC(=O)Cc3cccs3)[C@H]2SC1` [Example 26(b), Sodium 3-carbamoyloxymethyl-7α-formamido-7β-thien-2-yletamido-ceph-3-em-4-carboxylate], the minimum inhibitory concentration (MIC) is 16 µg/mL.
